Article PMC9227536, “Prediction of Pharmacokinetics of IDP-73152 in Humans Using Physiologically-Based Pharmacokinetics” (Pharmaceutics, 2022)
Read-outs that look alike come from different tables or passages of the source.

Tests used:
[1] = Metabolic stability in liver microsomes, rat; type: in vitro ADME
Description: In this study, the metabolic stability of IDP-73152 in microsomes from mice, rats, dogs, and humans, as well as rat hepatocytes, was determined. For a microsomal incubation study, the incubation mixtures, containing mouse, rat, dog, or human liver microsomes at a protein concentration of 0.5 mg/mL, 3.3 mM MgCl2, and 1.3 mM NADPH, in a 100 mM potassium phosphate buffer (pH 7.4), were preincubated for 3 min at 37 °C. In parallel, a control incubation mixture (i.e., identical composition to that of the incubation mixture without NADPH) was also prepared for comparison. The reaction was initiated by the addition of a 10 × solution of IDP-73152 (final concentration in mixtures of 1 μM) to the incubation mixtures or the control incubation mixtures. The mixtures were incubated in a shaking water bath (37 °C, 90 rpm). Aliquots (30 μL) were collected at 0, 15, 30, and 45 min from the mixture and the reaction was terminated by the addition of a 4-fold volume of ice-cold acetonitrile to the sample. The mixture was then vortexed for 5 min and centrifuged for 10 min at 10,000× g. The supernatant was collected and stored at -80 °C until the analysis. For the hepatocyte incubation study, rat hepatocytes were freshly prepared using the two-step collagenase perfusion method with slight modifications. After the isolation, cell viability during the preparation process was first determined by a trypan blue exclusion assay prior to the stability study. The preparation was considered adequate for subsequent studies if the viability was greater than 80%. When appropriate, the hepatocytes were resuspended in Williams' media E containing 10% fetal bovine serum, 1% penicillin-streptomycin, and 0.01% insulin-transferrin-selenium (i.e., 10 mg/mL insulin, 5.5 mg/mL transferrin, and 5 mg/mL selenium) at pH 7.4. The reaction was carried out with the hepatocyte suspension prepared at 1 × 10^6 cells/mL (0.5 mL) and initiated by the addition of equal volume of IDP-73152 solution (i.e., final concentration of the compound at 1 μM in 0.5 × 10^6 cells/mL of hepatocytes) to the hepatocyte suspension. […] Assuming first-order disappearance kinetics, the slope k of the logarithmically transformed IDP-73152 concentration in the sample versus time plot was determined by the linear regression analysis of the data. The total intrinsic clearance (CLint,mic, μL/min/mg protein for microsomal incubation study and CLint,hep, μL/min/million cells for hepatocytes incubation study) was then calculated using the following equations:(4) CLint, mic=k×Volume of incubation medium (μL)/Protein in incubation medium (mg) (5) CLint,hep=k×Volume of incubation (μL)/Number of cells in incubation (×10^6) The unbound intrinsic clearance, with respect to the whole liver ([…]), was then estimated for the two cases. […]

[2] = PK study in rats (intravenous and oral); type: in vivo, Male Sprague Dawley rats; conditions: for Vd / clearance: iv, 10 mg/kg; for Vd: read-out: Vss; for clearance: read-out: CLp (converted); for Tmax: 20 mg/kg
Description: The in vivo experimental protocol was approved by the Institutional Animal Care and Use Committee of Research Laboratory at Ildong pharmaceutical Co., Ltd. (Ref. No.: IDL-PDF-001 and 09005-11004). Animals were acclimatized to the laboratory conditions for at least 1 week before the experiments and were kept in the standardized conditions (20–25 °C, 55 ± 5% humidity, and a 12 h light/dark cycle). The animals fasted overnight prior to drug administration, and food was resupplied 4 h post-dose. Male Sprague Dawley rats (Orient Bio Inc., Seongnam, Korea), weighing 194.7 g to 205.4 g, were used in this study. IDP-73152 was administered to rats at a single dose of 2.5, 5, or 10 mg/kg via tail vein injection (the injection volume fixed at 2 mL/kg in saline). […] Blood samples (100 μL) were collected from the jugular vein at 0.167, 0.33, 0.5, 1, 2, 4, and 8 h after the administration. Plasma was separated/collected by centrifugation of the blood samples for 5 min at 10,000× g/4 °C and stored at −80 °C until analysis. When necessary, the biliary and renal excretion of IDP-73152 were studied in bile duct-cannulated rats after the intravenous injection (5 mg/kg) to investigate its route(s) of excretion in rats. Bile and urine samples were collected up to 8 h (i.e., approximately 5 times of the terminal phase half-life) after the administration and the samples were stored at −80 °C until the analysis. The cumulative excretion of the bile and the urine to infinite time was determined by assuming that the excretion was practically completed by the last collection time. When necessary for a model independent PK analysis, a standard moment analysis was carried out with WinNonlin software using either representative (for the study with mice) or individual (for the study with rats, dogs, and humans) concentration–time profile(s). For the calculation of PBPK models, Berkeley Madonna 8.3.18 (Albany, CA, USA) was used with the fourth-order Runge–Kutta method for numerical integration.

[3] = male, Sprague Dawley, rat, plasma, intravenous, across doses of 2.5, 5, and 10 mg/kg

Question: With `CC(C)(C)[C@H](NC(=O)[C@H](CC1CCCC1)CN(O)C=O)C(=O)N1CCC(NCc2cc(F)c(F)cc2F)CC1` [IDP-73152] as the compound, how does the CLhep predicted at 1 μM ([1]; rat, liver microsomes, pH 7.4, rats, read-out: CLh calculated from the CLint,mic (converted)) read?
Answer: The CLhep predicted at 1 μM was 28.2 mL/min/kg.

Question: What about the microsomal CLint at 1 μM ([1]; rat, pH 7.4, rats liver microsomes 0.5 mg/mL, 1 μM, read-out: CLint,mic) of the same compound?
Answer: Its microsomal CLint at 1 μM is 72 ± 2.6 µL/min/mg.

Question: What about the “hepatic ER (extraction ratio)” value ([1]; rats, from microsomal clearance, well-stirred model) of the same compound?
Answer: The value was 0.222 ± 0.006.

Question: What about the “CLu,int,H” value ([1]; rats, scaled up to the whole liver from microsomes) of the same compound?
Answer: Its value is 7.46 ± 0.27 L/h.

Question: What about the AUC(0-inf) ([2]; male, Sprague Dawley, rat, plasma, intravenous 2.5 mg/kg, read-out: Observed AUCinf) of the same compound?
Answer: Its AUC(0-inf) is 1320 ± 130 ng·h/mL.

Question: And the AUC(0-inf) ([2]; male, Sprague Dawley, rat, plasma, intravenous 5 mg/kg, read-out: Observed AUCinf)?
Answer: Its AUC(0-inf) is 3270 ± 1820 ng·h/mL.

Question: What about the AUC(0-inf) ([2]; male, Sprague Dawley, rat, plasma, intravenous 10 mg/kg, read-out: AUCinf) of the same compound?
Answer: Its AUC(0-inf) is 5030 ± 380 ng·h/mL.

Question: And the half-life ([2]; male, Sprague Dawley, rat, plasma, intravenous 10 mg/kg, read-out: t1/2 (converted))?
Answer: The half-life was 1.43 ± 0.11 h.

Question: What about the Vd ([2]; male, Sprague Dawley, rat, plasma, intravenous 10 mg/kg, moment analysis) of the same compound?
Answer: The Vd was 2.54 ± 0.26 L/kg.

Question: And the clearance ([2]; male, Sprague Dawley, rat, plasma, intravenous 10 mg/kg)?
Answer: Its clearance is about 33.3 mL/min/kg.

Question: What about the clearance [2, 3] of the same compound?
Answer: The clearance was 30.8 to 33.3 mL/min/kg.

Question: And the Vd [2, 3]?
Answer: Its Vd is 2.45 to 2.78 L/kg.

Question: What about the Cmax ([2]; male, Sprague Dawley, rat, plasma, oral 20 mg/kg) of the same compound?
Answer: Its Cmax is 1650 ± 440 ng/mL.

Question: What about the bioavailability ([2]; male, Sprague Dawley, rat, plasma, oral 20 mg/kg vs intravenous 10 mg/kg, read-out: F (bioavailability)) of the same compound?
Answer: The bioavailability was 55.3%.

Question: And the AUC(0-inf) ([2]; male, Sprague Dawley, rat, plasma, oral 20 mg/kg, read-out: AUCinf)?
Answer: Its AUC(0-inf) is 5570 ± 1590 ng·h/mL.

Question: What about the half-life ([2]; male, Sprague Dawley, rat, plasma, oral 20 mg/kg, read-out: t1/2 (terminal phase half-life) (converted)) of the same compound?
Answer: Its half-life is 2.97 ± 1.4 h.

Question: What about the Tmax ([2]; male, Sprague Dawley, rat, plasma, po, oral 20 mg/kg, read-out: Tmax) of the same compound?
Answer: The Tmax was 0.667 h.

Question: And the Tmax ([2]; oral 20 mg/kg)?
Answer: The Tmax was 0.638 ± 0.29 h.
